# From patent publication US4559362A, “Immunopotentiator” (Zaidan Hojin Biseibutsu Kagaku Kenkyu Kai, priority 1982, dated 1985)
# Like-named read-outs stand apart in the source and are kept apart here.
# Tests used:
# [1] = system: suppressor cells against DTH; assay: Inhibition of the elevation of suppressor cells against DTH (spleen cell transfer), sole swelling; format: in vivo, CDF1 mice; conditions: transferred suppressor cells; for % suppression: untreated suppressor cells 53
# Experimental: (§1) The pharmacological effects of spermidine will be illustrated by reference to the following experimental examples, in which spermidine was administered as its phosphate dissolved in physiological saline.
# Experiments were conducted to transfer suppressor cells, in accordance with the method of Yamaguchi et al. (Yamaguchi, K. and Kishimoto, S.: Distinction between suppressors of the delayed-type hypersensitivity and the humoral response to sheep erythrocytes. Immunology. 35, 721-731, 1978). CDF1 mice (8 weeks old, female) were intravenously administered with 10^8 sheep erythrocytes, the amount enough to induce the elevation of suppressor cells against DTH. The objective was to promote the production of suppressor cells. Two days later, supermidine was intraperitoneally injected once daily, and this treatment was continued for 3 days. Five days later, spleen cells were collected from the mice, and 4.5×10^7 cells of them were transferred to normal syngenic mice by i.v. injection. Simultaneously, 10^5 sheep erythrocytes, the amount enough to obtain the optimal reaction, was i.v. injected for immunization.
# Four days later, 10^8 sheep erythrocytes were subcutaneously injected to the soles of the mice to induce the reaction. Twenty-four hours later, swellings on the soles were measured to evaluate the efficacy of spermidine.
# [2] = system: IMC cancer cells; assay: Growth inhibitory effect on cultured IMC cancer cells; format: cell-based; conditions: 48 hours, 37° C., read-out: concentration at which 50% of the original cells were inhibited from growth
# Experimental: A study was conducted on the growth inhibitory effect of spermidine on cultures of IMC cancer cells and L-1210 cells. IMC cancer cells were cultured in an RPMI 1640 medium containing 10% bovine fetus serum and 2-mercaptoethanol, and L-1210 cells in an MEM medium containing 10% calf serum, for 48 hours at 37° C. in 5% carbon dioxide. The number of cultured cells was counted with a Coulter counter to evaluate the degree of cell proliferation. Spermidine was added at the start of incubation.
# [3] = system: interleukine-2 production (T blast cells); assay: Interleukine-2 production by spleen cells, activity of promoting the proliferation of T blast cells; format: cell-based, CDF1 mice; conditions: for activity at 0.001 µg/mL / activity at 0.01 µg/mL / activity at 0.1 µg/mL / activity at 1 µg/mL: Mus musculus, 24 h, control = 100, read-out: ^3 H-thymidine incorporation, T blast cells; for activity at 0.001 µg/mL: 0.001 μg/ml; for activity at 0.01 µg/mL: 0.01 μg/ml; for activity at 0.1 µg/mL: 0.1 μg/ml; for activity at 1 µg/mL: 1 μg/ml
# Experimental: The effect of spermidine on the production of interleukine was investigated in accordance with the method of Larsson et al. (Larsson, E-L: Mechanism of T cell activation II. Antigen- and lectin-dependent acquisition of responsiveness to TCGF is a nonmitogenic, active response of resting T cells. J. Immunol. 126, 1323-1326, 1981).
# Spermidine in a varying concentration was added to 1×10^7 spleen cells/ml of CDF1 mice. In the presence or absence of added concanavalin A (2 μg/ml), the stimulant of interleukine-2 production, the cells were then cultured in a cell incubator kept at 37° C. and at a carbon dioxide concentration of 5% for 24 hours. After completion of the incubation, α-methylmannoside was added to the supernatant to inactivate concanavalin A. The supernatant was collected to examine its interleukine-2 activity. The interleukine-2 activity was determined by the activity of promoting the proliferation of T blast cells and the activity of promoting the division of thymocytes. The latter two activities were determined by measuring ^3 H-thymidine incorporations to both types of cells.
# [4] = system: S-180 sarcoma; assay: Antitumor effect on S180 sarcoma transplanted subcutaneously into ICR mice; format: in vivo; conditions: for Weight of tumor ± S.D.: 10 times on alternative days, day 30, in mg (unit assumed)
# Experimental: as §1
# (a) The antitumor effect of spermidine was investigated on IMC carcinoma successively transplanted into CDF1 mice and on S180 sarcoma transplanted into ICR mice. 1×10^6 tumor cells of each of the above type were transplanted subcutaneously into such mice (Day 0). From Day 1 onwards, spermidine was intraperitoneally injected a total of 10 times (once daily on alternative days). Thirty days after transplantation of tumor cells, the tumor was removed and weighed to evaluate the effect of spermidine.
# [5] = system: delayed-type hypersensitivity (DTH) to sheep erythrocytes; assay: Effect on delayed-type hypersensitivity (DTH) to sheep erythrocytes, sole swelling; format: in vivo, CDF1 mice
# Experimental: as §1
# In accordance with the method of Lagrange et al. (Lagrange, P. H., Mackaness, G. B., and Miller, T. E.: Influence of dose and route of antigen injection on the immunological induction of T cells. J. Exp. Med. 139, 528-542, 1974), the effect of spermidine on cellular immunity was investigated using as its index the degree of delayed-type hypersensitivity (DTH) to sheep erythrocytes as the antigen. CDF1 mice (8 weeks old, female) were intravenously injected with 10^5 or 10^8 sheep erythrocytes for immunization, and at the same time, were intraperitoneally injected with spermidine. Four days later, the soles of the mice were subcutaneously injected with 10^8 sheep erythrocytes to induce the DTH reaction. Twenty four hours later, swellings on the soles were measured with a caliper to evaluate the effect of spermidine.
structure (smiles),measurement,setting,value
"NCCCCNCCCN [Spermidine, spermidine]",Swelling on the sole,[1]; 10 μg/mouse i.p. once daily for 3 days,8.0 ± 0.3 × 0.1 mm
same,% suppression,[1]; 10 μg/mouse,42%
same,Swelling on the sole,[1]; 100 μg/mouse i.p. once daily for 3 days,10.2 ± 0.4 × 0.1 mm
same,% suppression,[1]; 100 μg/mouse,26%
same,Swelling on the sole,[1]; 1000 μg/mouse i.p. once daily for 3 days,10.9 ± 0.8 × 0.1 mm
same,% suppression,[1]; 1000 μg/mouse,21%
same,IC50,[2],2.4 µg/mL
same,optimal concentration (interleukin-2 production),[3],0.1 µg/mL
same,activity at 0.001 µg/mL,[3]; with Con A (2 μg/ml),94%
same,activity at 0.001 µg/mL,[3]; without Con A,137%
same,activity at 0.01 µg/mL,[3]; with Con A (2 μg/ml),153%
same,activity at 0.01 µg/mL,[3]; without Con A,152%
same,activity at 0.1 µg/mL,[3]; with Con A (2 μg/ml),157%
same,activity at 0.1 µg/mL,[3]; without Con A,166%
same,activity at 1 µg/mL,[3]; with Con A (2 μg/ml),152%
same,activity at 1 µg/mL,[3]; without Con A,136%
same,% inhibition (weight of tumor),[4]; 0.05 mg/kg/day i.p.,9%
same,Weight of tumor ± S.D.,[4]; 0.05 mg/kg/day i.p.,5193 ± 1522
same,% inhibition (weight of tumor),[4]; 0.5 mg/kg/day i.p.,35%
same,Weight of tumor ± S.D.,[4]; 0.5 mg/kg/day i.p.,3689 ± 1331
same,% inhibition (weight of tumor),[4]; 5 mg/kg/day i.p.,63%
same,Weight of tumor ± S.D.,[4]; 5 mg/kg/day i.p.,2087 ± 1040
same,% inhibition (weight of tumor),[4]; 50 mg/kg/day i.p.,43%
same,Weight of tumor ± S.D.,[4]; 50 mg/kg/day i.p.,3245 ± 1106
same,effect on normal cellular immunity,[5]; 5 to 0.005 mg/kg,enhances normal cellular immunity
same,Swelling on the sole,"[5]; 10^5 sheep erythrocytes, 0.01 μg/mouse (0.0005) i.p.",5.8 ± 0.4 × 0.1 mm
same,% increase (swelling on the sole),"[5]; 10^5 sheep erythrocytes, 0.01 μg/mouse (0.0005) i.p., untreated 10^5 group = 100",91%
same,Swelling on the sole,"[5]; 10^5 sheep erythrocytes, 0.1 μg/mouse (0.005) i.p.",9.4 ± 0.7 × 0.1 mm
same,% increase (swelling on the sole),"[5]; 10^5 sheep erythrocytes, 0.1 μg/mouse (0.005) i.p., untreated 10^5 group = 100",147%
same,Swelling on the sole,"[5]; 10^5 sheep erythrocytes, 1 μg/mouse (0.05) i.p.",8.5 ± 0.7 × 0.1 mm
same,% increase (swelling on the sole),"[5]; 10^5 sheep erythrocytes, 1 μg/mouse (0.05) i.p., untreated 10^5 group = 100",133%
same,Swelling on the sole,"[5]; 10^5 sheep erythrocytes, 10 μg/mouse (0.5) i.p.",8.9 ± 0.7 × 0.1 mm
same,% increase (swelling on the sole),"[5]; 10^5 sheep erythrocytes, 10 μg/mouse (0.5) i.p., untreated 10^5 group = 100",139%
same,Swelling on the sole,"[5]; 10^5 sheep erythrocytes, 100 μg/mouse (5) i.p.",8.1 ± 1.1 × 0.1 mm
same,% increase (swelling on the sole),"[5]; 10^5 sheep erythrocytes, 100 μg/mouse (5) i.p., untreated 10^5 group = 100",126%
same,Swelling on the sole,"[5]; 10^5 sheep erythrocytes, 1000 μg/mouse (50) i.p.",7.1 ± 0.3 × 0.1 mm
same,% increase (swelling on the sole),"[5]; 10^5 sheep erythrocytes, 1000 μg/mouse (50) i.p., untreated 10^5 group = 100",111%
same,effect of enhancing cellular immunity,"[5]; 10^5 sheep erythrocytes, 0.01 or 1000 μg/mouse",no enhancing effect
same,effect of enhancing cellular immunity,"[5]; 10^5 sheep erythrocytes, 0.1 to 100 μg/mouse",significant effect of enhancing cellular immunity
same,Swelling on the sole,"[5]; 10^8 sheep erythrocytes, 0.01 μg/mouse (0.0005) i.p.",4.5 ± 0.2 × 0.1 mm
same,% increase (swelling on the sole),"[5]; 10^8 sheep erythrocytes, 0.01 μg/mouse (0.0005) i.p., untreated 10^5 group = 100, untreated 10^8 group = 48",70%
same,Swelling on the sole,"[5]; 10^8 sheep erythrocytes, 0.1 μg/mouse (0.005) i.p.",5.3 ± 0.3 × 0.1 mm
same,% increase (swelling on the sole),"[5]; 10^8 sheep erythrocytes, 0.1 μg/mouse (0.005) i.p., untreated 10^5 group = 100, untreated 10^8 group = 48",83%
same,Swelling on the sole,"[5]; 10^8 sheep erythrocytes, 1 μg/mouse (0.05) i.p.",6.3 ± 0.3 × 0.1 mm
same,% increase (swelling on the sole),"[5]; 10^8 sheep erythrocytes, 1 μg/mouse (0.05) i.p., untreated 10^5 group = 100, untreated 10^8 group = 48",98%
same,Swelling on the sole,"[5]; 10^8 sheep erythrocytes, 10 μg/mouse (0.5) i.p.",6.4 ± 0.06 × 0.1 mm
same,% increase (swelling on the sole),"[5]; 10^8 sheep erythrocytes, 10 μg/mouse (0.5) i.p., untreated 10^5 group = 100, untreated 10^8 group = 48",100%
same,Swelling on the sole,"[5]; 10^8 sheep erythrocytes, 100 μg/mouse (5.0) i.p.",6.4 ± 0.4 × 0.1 mm
same,% increase (swelling on the sole),"[5]; 10^8 sheep erythrocytes, 100 μg/mouse (5.0) i.p., untreated 10^5 group = 100, untreated 10^8 group = 48",100%
same,Swelling on the sole,"[5]; 10^8 sheep erythrocytes, 1000 μg/mouse (50) i.p.",7.4 ± 0.5 × 0.1 mm
same,% increase (swelling on the sole),"[5]; 10^8 sheep erythrocytes, 1000 μg/mouse (50) i.p., untreated 10^5 group = 100, untreated 10^8 group = 48",116%
same,effect of strengthening cellular immunity,"[5]; 10^8 sheep erythrocytes, 0.1 to 1000 μg/mouse, vs 10^8 control group",marked effect of strengthening cellular immunity
same,DTH reaction compared with group immunized with 10^5 erythrocytes,"[5]; 10^8 sheep erythrocytes, 10 to 1000 μg/mouse",comparable
same,effect on suppression of cellular immunity by suppressor cells,[5]; 50 to 0.5 mg/kg,inhibit the suppression of cellular immunity by suppressor cells
